Converted amounts (≈) assume the structure as drawn.
Tests used:
[1] = test system: Acinetobacter calcoaceticus AC 54; experiment: Minimum inhibitory concentration (MIC); assay type: cell-based; conditions: Acinetobacter calcoaceticus, AC54, Acinetobacter calcoaceticus AC 54, Gram -
Protocol: (§1) The compounds of the present invention (A, C, E, F, G, H and I) and ofloxacin as control were dissolved in 0.1N aqueous potassium hydroxide to prepare a solution of 5000 μg/ml in concentration. The compounds of the present invention (B, D and J) were dissolved in sterilized distilled water to prepare a solution of 5000 μg/ml in concentration. Each solution was diluted with sterilized distilled water to prepare a standard solution with a concentration of each test compound: 1000 μg/ml. The test was carried out by a method approved by Japan Society of Chemotherapy [cf. Chemotherapy, 29, 76-79 (1981)(TOKYO)].

[2] = test system: Bacillus subtilis ATCC 6633; experiment: Minimum inhibitory concentration (MIC); assay type: cell-based; conditions: ATCC6633; Bacillus subtilis ATCC 6633, Gram +; read-out: Minimum inhibitory concentration (MIC)
Protocol: as §1

[3] = test system: Citrobacter freundii NIHJ 10018-68; experiment: Minimum inhibitory concentration (MIC); assay type: cell-based; conditions: NIHJ10018; Citrobacter freundii NIHJ 10018-68, Gram -
Protocol: as §1

[4] = test system: Enterobacter aerogenes ATCC 13048; experiment: Minimum inhibitory concentration (MIC); assay type: cell-based; conditions: Klebsiella aerogenes, ATCC13048, Enterobacter aerogenes ATCC 13048, Gram -
Protocol: as §1

Enterobacter cloacae 963 = experiment: Minimum inhibitory concentration (MIC); assay type: cell-based; conditions: Enterobacter cloacae 963, Gram -
Protocol: as §1

Escherichia coli KC-14 [5] = experiment: Minimum inhibitory concentration (MIC); assay type: cell-based; conditions: KC14; Escherichia coli KC-14, Gram -
Protocol: as §1

[6] = test system: Escherichia coli NIHJ JC-2; experiment: Minimum inhibitory concentration (MIC); assay type: cell-based; conditions: NIHJJC2; Escherichia coli NIHJ JC-2, Gram -
Protocol: as §1

[7] = test system: Klebsiella pneumoniae PCI 602; experiment: Minimum inhibitory concentration (MIC); assay type: cell-based; conditions: Klebsiella pneumoniae, PCI602, Klebsiella pneumoniae PCI 602, Gram -; read-out: Minimum inhibitory concentration (MIC)
Protocol: as §1

[8] = test system: Micrococcus luteus ATCC 9341; experiment: Minimum inhibitory concentration (MIC); assay type: cell-based; conditions: ATCC9341; Micrococcus luteus ATCC 9341, Gram +
Protocol: as §1

[9] = test system: Morganella morganii IFO 3848; experiment: Minimum inhibitory concentration (MIC); assay type: cell-based; conditions: IFO3848; Morganella morganii IFO 3848, Gram -
Protocol: as §1

[10] = test system: Proteus mirabilis IFO 3849; experiment: Minimum inhibitory concentration (MIC); assay type: cell-based; conditions: IFO3849; Proteus mirabilis IFO 3849, Gram -
Protocol: as §1

Proteus vulgaris OX-19 = experiment: Minimum inhibitory concentration (MIC); assay type: cell-based; conditions: OX19; Proteus vulgaris OX-19, Gram -; read-out: Minimum inhibitory concentration (MIC)
Protocol: as §1

[11] = test system: Pseudomonas aeruginosa E-2; experiment: Minimum inhibitory concentration (MIC); assay type: cell-based; conditions: E2; Pseudomonas aeruginosa E-2, Gram -
Protocol: as §1

[12] = test system: Pseudomonas aeruginosa IFO 3445; experiment: Minimum inhibitory concentration (MIC); assay type: cell-based; conditions: Pseudomonas aeruginosa, IFO3445, Pseudomonas aeruginosa IFO 3445, Gram -
Protocol: as §1

[13] = test system: Pseudomonas aeruginosa NCTC 10490; experiment: Minimum inhibitory concentration (MIC); assay type: cell-based; conditions: Pseudomonas aeruginosa, NCTC10490, Pseudomonas aeruginosa NCTC 10490, Gram -
Protocol: as §1

[14] = test system: Salmonella typhimurium IID 971; experiment: Minimum inhibitory concentration (MIC); assay type: cell-based; conditions: Salmonella enterica, Salmonella typhimurium IID 971, Gram -; read-out: Minimum inhibitory concentration (MIC)
Protocol: as §1

[15] = test system: Serratia marcescens IAM 1184; experiment: Minimum inhibitory concentration (MIC); assay type: cell-based; conditions: Serratia marcescens, IAM1184, Serratia marcescens IAM 1184, Gram -
Protocol: as §1

Shigella sonnei EW-33 = experiment: Minimum inhibitory concentration (MIC); assay type: cell-based; conditions: EW33; Shigella sonnei EW-33, Gram -
Protocol: as §1

[16] = test system: Staphylococcus aureus FDA 209P JC-1; experiment: Minimum inhibitory concentration (MIC); assay type: cell-based; conditions: FDA209P; Staphylococcus aureus FDA 209P JC-1, Gram +
Protocol: as §1

[17] = test system: Staphylococcus aureus IID 803; experiment: Minimum inhibitory concentration (MIC); assay type: cell-based; conditions: IID803; Staphylococcus aureus IID 803, Gram +; read-out: Minimum inhibitory concentration (MIC)
Protocol: as §1

[18] = test system: Staphylococcus epidermidis IAM-1296; experiment: Minimum inhibitory concentration (MIC); assay type: cell-based; conditions: Staphylococcus epidermidis, IAM1296, Staphylococcus epidermidis IAM-1296, Gram +
Protocol: as §1

[19] = test system: Streptococcus faecalis IID 682; experiment: Minimum inhibitory concentration (MIC); assay type: cell-based; conditions: Enterococcus faecalis, IID682, Streptococcus faecalis IID 682, Gram +
Protocol: as §1

[20] = test system: Staphylococcus aureus IID 803; experiment: Effect on treatment of general infectious disease; assay type: in vivo, ddY male mice; conditions: IID803, 168 h, S. aureus IID 803, 1.0×10^6 CFU/mouse i.p., oral one hour after infection, survival after one week
Protocol: Staphylococcus aureus IID 803 (1.0×10^6 CFU/mouse)
(§2) The test microorganisms were subjected to standing culture in Trypto-Soya Agar "Nissui" (made by Nissui Seiyaku K.K., Japan) at 37° C. for 16 to 18 hours. The culture was then diluted with PBS (Dulbecco's phosphate buffered saline) and mixed with an equivalent amount of 10% (w/v) Mucin (BACTO MUCIN BACTERIOLOGICAL, made by Difco Co.) to prepare a microorganism solution. The thus prepared microorganism solution (0.5 ml each) was intraperitoneally innoculated to ddY male mice (4 weeks age, weighing 20-22 g, 5 mice in each group), to infect the animals. One hour after the infection, the compound (B) of the present invention dissolved in sterilized distilled water or ofloxacin suspended in 0.5% (w/v) aqueous sodium carboxymethyl cellulose solution was orally adiministered to mice.
(§3) The mice were daily observed for one week, and from the survival number of mice after one week, the 50% effective dose (ED50) was calculated by Weil method.

Escherichia coli KC-14 [21] = experiment: Effect on treatment of general infectious disease; assay type: in vivo, ddY male mice; conditions: KC14, 168 h, E. coli KC-14, 1.2×10^4 CFU/mouse i.p., oral one hour after infection, survival after one week
Protocol: Escherichia coli KC-14 (1.2×10^4 CFU/mouse)
as §2, §3

[22] = test system: Pseudomonas aeruginosa E-2; experiment: Effect on treatment of general infectious disease; assay type: in vivo, ddY male mice; conditions: E2, 168 h, P. aeruginosa E-2, 1.6×10^4 CFU/mouse i.p., oral one hour after infection, survival after one week
Protocol: Pseudomonas aeruginosa E-2 (1.6×10^4 CFU/mouse)
as §2, §3

For `CC1COc2c(N3CCN(C)CC3)c(F)cc3c(=O)c(C(=O)O)cn1c23` (racemic) [Ofloxacin, reference compound], the MIC [1] was 0.39 µg/mL (≈ 1.08 µM), the MIC [2] was 0.1 µg/mL (≈ 0.277 µM) and the MIC [3] was 0.39 µg/mL (≈ 1.08 µM). It also gave an MIC [4] of 0.1 µg/mL (≈ 0.277 µM), an MIC (Enterobacter cloacae 963) of 0.2 µg/mL (≈ 0.553 µM) and an MIC (Escherichia coli KC-14 [5]) of 0.1 µg/mL (≈ 0.277 µM). It also gave an MIC [6] of 0.1 µg/mL (≈ 0.277 µM), an MIC [7] of 0.05 µg/mL (≈ 0.138 µM) and an MIC [8] of 3.13 µg/mL. For the same compound, the MIC [9] was 0.1 µg/mL (≈ 0.277 µM), the MIC [10] was 0.39 µg/mL (≈ 1.08 µM) and the MIC (Proteus vulgaris OX-19) was 0.05 µg/mL (≈ 0.138 µM). The MIC [11] was 1.56 µg/mL (≈ 4.32 µM), the MIC [12] was 1.56 µg/mL (≈ 4.32 µM) and the MIC [13] was 1.56 µg/mL (≈ 4.32 µM). For the same compound, the MIC [14] was 0.05 µg/mL (≈ 0.138 µM), the MIC [15] was 0.78 µg/mL (≈ 2.16 µM) and the MIC (Shigella sonnei EW-33) was 0.05 µg/mL (≈ 0.138 µM). For the same compound, the MIC [16] was 0.39 µg/mL, the MIC [17] was 0.39 µg/mL (≈ 1.08 µM) and the MIC [18] was 0.78 µg/mL. For the same compound, the MIC [19] was 1.56 µg/mL, the ED50 [20] was 11.5 mg/kg and the ED50 (Escherichia coli KC-14 [21]) was 1.1 mg/kg. For the same compound, the ED50 [22] was 22.9 mg/kg.

From patent US4808584A, “Quinolinecarboxylic acid derivatives and antibacterial agent containing the same” (Kanebo, Ltd., priority 1987, dated 1989)
